Data taken from patent publication US7781477B2, “Therapeutic use of N-(1H-Indolyl)-1H-indole-2-carboxamide derivatives” (Sanofi-Aventis, priority 2004, dated 2010).

Experiments:
TRPV1 receptors = biological target: T1, TRPV1 receptors (Mus musculus, UniProt Q704Y3); assay: Mouse corneal irritation test (capsaicin ocular instillation); format: in vivo; details: percentage of protection against rubbing of the eye induced by 2 μl of 160 μM capsaicin, pretreatment time 1 h
T1 construct: from tissue; host or cells: living mouse, cornea (C fibers)
Protocol: Mouse Corneal Irritation Test
The irritating nature of capsaicin is easily assessed on the cornea since this organ is one of the most innervated by C fibers. In this context, according to preliminary experiments, the application of a very small amount of capsaicin (2 μl at a concentration of 160 μM) at the surface of the cornea of an animal results in a number of kinds of stereotyped behavior related to irritation which are easy to record. These include: blinking of the eye, rubbing of the instilled eye by the ipsilateral front paw, rubbing of the face with the two front paws and scratching of the ipsilateral face by the hind paw. […] Its appearance is furthermore also normal. […] It may be concluded therefrom that the duration of action of capsaicin at these doses is less than 2 minutes. […]
In practice, the test product is administered orally and, with a delay (pretreatment time: t) which depends on the pharmacokinetic data, the animal receives the ocular instillation of 2 μl of a 160 μM capsaicin solution prepared as indicated above. During observation for 2 minutes following the instillation, the number of rubbing actions on the instilled eye by the ipsilateral front paw is recorded.
For a given animal, the percentage of protection is calculated as follows: P=100−((number of scratching actions observed/mean number of scratching actions of the group treated with the solvent)×100). […]

TRPV1 receptor = biological target: T2, TRPV1 receptor (Rattus norvegicus, UniProt O35433); assay: Inhibition of the current induced by capsaicin with regard to rat DRGs (whole cell patch clamp); format: cell-based; details: DRG neuron; % inhibition of the control capsaicin (300 nM) response; compound at 10 nM; primary culture of newborn rat DRG neurons; read-out: % Inhibition by the DRG patch technique
T2 construct: The neurons of the DRG naturally express the TRPV1 receptor; endogenous in cells; host or cells: primary culture of newborn rat dorsal root ganglion (DRG) neurons
Protocol: Test of the Inhibition of the Current Induced by Capsaicin with Regard to Rat DRGs
Primary Culture of Rat Dorsal Route Ganglion (DRG) Cells:
The neurons of the DRG naturally express the TRPV1 receptor.
Primary cultures of DRGs of newborn rats are prepared from 1-day-old rats. Briefly, after dissection, the ganglions are trypsinized and their cells dissociated mechanically by gentle trituration. […]
The measurement chambers (volume 800 μl) comprising the cell preparation are placed on the stage of an inverted microscope (Olympus IMT2) equipped with Hoffman optics (Modulation Contrast, New York) and are observed at a magnification of 400×. […] The overall currents (membrane potential set at −60 mV) are recorded with an Axopatch 1D amplifier (Axon Instruments, Foster City, Calif.) connected to a PC controlled by Pclamp8 software (Axon Instruments). The current plots are recorded on paper and simultaneously recorded digitally (sampling frequency 15 to 25 Hz) and acquired on the hard disk of the PC.
The application of a 300 nM capsaicin solution produces an incoming cationic current with regard to the DRG cells (voltage set at −70 mV). […] The results are expressed as % of inhibition of the control capsaicin response.

T2 sequence (O35433 whole entry): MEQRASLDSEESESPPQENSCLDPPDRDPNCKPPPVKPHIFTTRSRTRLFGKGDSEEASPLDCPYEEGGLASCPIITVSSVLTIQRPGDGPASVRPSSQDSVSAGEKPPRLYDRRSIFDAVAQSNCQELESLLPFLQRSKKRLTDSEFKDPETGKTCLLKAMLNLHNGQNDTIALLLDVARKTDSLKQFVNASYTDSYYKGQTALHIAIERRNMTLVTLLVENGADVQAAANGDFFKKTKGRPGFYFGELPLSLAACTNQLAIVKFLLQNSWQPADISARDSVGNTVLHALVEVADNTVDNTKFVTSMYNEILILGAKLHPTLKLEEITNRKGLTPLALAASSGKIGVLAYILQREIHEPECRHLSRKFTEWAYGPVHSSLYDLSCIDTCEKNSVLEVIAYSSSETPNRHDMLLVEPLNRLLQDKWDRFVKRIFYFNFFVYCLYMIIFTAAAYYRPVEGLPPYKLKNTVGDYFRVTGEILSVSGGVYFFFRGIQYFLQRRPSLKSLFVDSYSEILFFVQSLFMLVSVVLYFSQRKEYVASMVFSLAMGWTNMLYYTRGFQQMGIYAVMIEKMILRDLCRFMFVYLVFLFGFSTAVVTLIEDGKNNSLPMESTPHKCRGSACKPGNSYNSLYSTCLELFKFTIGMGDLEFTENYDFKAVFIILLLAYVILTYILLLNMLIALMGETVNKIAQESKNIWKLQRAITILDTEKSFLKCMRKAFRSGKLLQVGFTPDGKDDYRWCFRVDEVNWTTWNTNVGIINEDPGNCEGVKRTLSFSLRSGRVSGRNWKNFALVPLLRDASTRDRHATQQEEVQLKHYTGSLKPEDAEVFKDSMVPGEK
T1 sequence (Q704Y3 whole entry): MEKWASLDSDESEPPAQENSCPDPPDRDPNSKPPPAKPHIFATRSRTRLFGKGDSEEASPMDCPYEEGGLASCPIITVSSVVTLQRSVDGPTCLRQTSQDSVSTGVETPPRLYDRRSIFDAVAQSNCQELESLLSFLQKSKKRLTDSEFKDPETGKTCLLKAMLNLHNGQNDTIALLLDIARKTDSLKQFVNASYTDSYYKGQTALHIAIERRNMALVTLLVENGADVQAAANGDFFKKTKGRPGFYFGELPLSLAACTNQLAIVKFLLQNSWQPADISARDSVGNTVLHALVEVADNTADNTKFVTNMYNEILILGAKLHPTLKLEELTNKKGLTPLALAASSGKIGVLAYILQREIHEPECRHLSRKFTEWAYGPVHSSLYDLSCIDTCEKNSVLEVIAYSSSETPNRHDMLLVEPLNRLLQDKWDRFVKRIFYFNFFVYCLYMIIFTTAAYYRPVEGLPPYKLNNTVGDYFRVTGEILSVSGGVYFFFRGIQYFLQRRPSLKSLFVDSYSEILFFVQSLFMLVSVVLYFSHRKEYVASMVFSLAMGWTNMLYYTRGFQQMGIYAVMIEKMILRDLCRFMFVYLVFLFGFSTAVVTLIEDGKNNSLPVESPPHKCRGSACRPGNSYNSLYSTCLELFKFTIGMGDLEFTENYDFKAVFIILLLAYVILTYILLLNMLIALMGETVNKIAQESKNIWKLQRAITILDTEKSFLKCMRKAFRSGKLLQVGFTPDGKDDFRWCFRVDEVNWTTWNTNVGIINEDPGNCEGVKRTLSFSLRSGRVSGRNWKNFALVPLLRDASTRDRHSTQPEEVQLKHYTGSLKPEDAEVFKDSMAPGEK

In the case of `Cn1ccc2cc(NC(=O)c3cc4ccccc4n3Cc3cccc(C(F)(F)F)c3)ccc21` [Compound No. 1, N-(1-Methyl-1H-indol-5-yl)-1-(3-trifluoromethylbenzyl)-1H-indole-2-carboxamide], the “% P - (t) at 60 mg/kg (p.o.) - (n = 8)” value (TRPV1 receptors) is reported as 26% - (1 h) and the inhibition at 0.01 µM (TRPV1 receptor) is reported as 56%.
